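Cells were grown in 96-well plates and exposed to each compound for 48 hours at five concentrations; endpoints were interpolated linearly between bracketing concentrations, or set to the highest concentration if not reached. The concentration for full growth arrest is given as TGI.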
System: OVCAR-4 ovarian
Test: growth of human tumour cells (NCI), 48 h

SMILES	TGI [µM]
O=C1C(Cl)C(c2cc3cc(Br)ccc3nc2Cl)N1c1ccc(F)c(Cl)c1 (stereo not given)	4.96
COCOc1cc(OCOC)cc(C(=O)Oc2ccccc2)c1	> 100

System: SF-295 CNS
Test: growth of human tumour cells (NCI), 48 h

SMILES	TGI [µM]
O=C(CSc1nc2ccccc2c2ccccc12)c1ccccc1	> 100
CN(C)C1C(=O)C(C(=O)NCN2CCCC2)=C(O)C2(O)C(=O)C3=C(O)c4c(O)cccc4C(C)(O)C3CC12 (stereo not given)	> 100
O=C1C(Cl)C(c2cc3cc(Br)ccc3nc2Cl)N1c1ccc(F)c(Cl)c1 (stereo not given)	23.4
COCOc1cc(OCOC)cc(C(=O)Oc2ccccc2)c1	> 100

System: OVCAR-8 ovarian
Test: growth of human tumour cells (NCI), 48 h

SMILES	TGI [µM]
CC#CC#C/C=C1/O[C@]2(CCC(OC(=O)CC(C)C)CO2)[C@@H]2O[C@H]12 (stereo not given in full)	> 100
O=C(CSc1nc2ccccc2c2ccccc12)c1ccccc1	> 100
CN(C)C1C(=O)C(C(=O)NCN2CCCC2)=C(O)C2(O)C(=O)C3=C(O)c4c(O)cccc4C(C)(O)C3CC12 (stereo not given)	> 100
O=C1C(Cl)C(c2cc3cc(Br)ccc3nc2Cl)N1c1ccc(F)c(Cl)c1 (stereo not given)	54
COCOc1cc(OCOC)cc(C(=O)Oc2ccccc2)c1	> 100

System: OVCAR-5 ovarian
Test: growth of human tumour cells (NCI), 48 h

SMILES	TGI [µM]
CC#CC#C/C=C1/O[C@]2(CCC(OC(=O)CC(C)C)CO2)[C@@H]2O[C@H]12 (stereo not given in full)	72.9
O=C(CSc1nc2ccccc2c2ccccc12)c1ccccc1	> 100
CN(C)C1C(=O)C(C(=O)NCN2CCCC2)=C(O)C2(O)C(=O)C3=C(O)c4c(O)cccc4C(C)(O)C3CC12 (stereo not given)	> 100
O=C1C(Cl)C(c2cc3cc(Br)ccc3nc2Cl)N1c1ccc(F)c(Cl)c1 (stereo not given)	24.8
COCOc1cc(OCOC)cc(C(=O)Oc2ccccc2)c1	> 100

System: MALME-3M melanoma
Test: growth of human tumour cells (NCI), 48 h

SMILES	TGI [µM]
CC#CC#C/C=C1/O[C@]2(CCC(OC(=O)CC(C)C)CO2)[C@@H]2O[C@H]12 (stereo not given in full)	47.7
O=C(CSc1nc2ccccc2c2ccccc12)c1ccccc1	> 100
CN(C)C1C(=O)C(C(=O)NCN2CCCC2)=C(O)C2(O)C(=O)C3=C(O)c4c(O)cccc4C(C)(O)C3CC12 (stereo not given)	48.7
O=C1C(Cl)C(c2cc3cc(Br)ccc3nc2Cl)N1c1ccc(F)c(Cl)c1 (stereo not given)	22.8
COCOc1cc(OCOC)cc(C(=O)Oc2ccccc2)c1	> 100

System: COLO 205 colon
Test: growth of human tumour cells (NCI), 48 h

SMILES	TGI [µM]
O=C(CSc1nc2ccccc2c2ccccc12)c1ccccc1	> 100
CN(C)C1C(=O)C(C(=O)NCN2CCCC2)=C(O)C2(O)C(=O)C3=C(O)c4c(O)cccc4C(C)(O)C3CC12 (stereo not given)	> 100
O=C1C(Cl)C(c2cc3cc(Br)ccc3nc2Cl)N1c1ccc(F)c(Cl)c1 (stereo not given)	22.5
COCOc1cc(OCOC)cc(C(=O)Oc2ccccc2)c1	> 100

System: MDA-N
Test: growth of human tumour cells (NCI), 48 h

SMILES	TGI [µM]
CC#CC#C/C=C1/O[C@]2(CCC(OC(=O)CC(C)C)CO2)[C@@H]2O[C@H]12 (stereo not given in full)	54.3
O=C(CSc1nc2ccccc2c2ccccc12)c1ccccc1	> 100
CN(C)C1C(=O)C(C(=O)NCN2CCCC2)=C(O)C2(O)C(=O)C3=C(O)c4c(O)cccc4C(C)(O)C3CC12 (stereo not given)	> 100
O=C1C(Cl)C(c2cc3cc(Br)ccc3nc2Cl)N1c1ccc(F)c(Cl)c1 (stereo not given)	22.3
COCOc1cc(OCOC)cc(C(=O)Oc2ccccc2)c1	> 100

System: A498 renal
Test: growth of human tumour cells (NCI), 48 h

SMILES	TGI [µM]
CC#CC#C/C=C1/O[C@]2(CCC(OC(=O)CC(C)C)CO2)[C@@H]2O[C@H]12 (stereo not given in full)	> 100
O=C(CSc1nc2ccccc2c2ccccc12)c1ccccc1	> 100
CN(C)C1C(=O)C(C(=O)NCN2CCCC2)=C(O)C2(O)C(=O)C3=C(O)c4c(O)cccc4C(C)(O)C3CC12 (stereo not given)	> 100
O=C1C(Cl)C(c2cc3cc(Br)ccc3nc2Cl)N1c1ccc(F)c(Cl)c1 (stereo not given)	15.1
COCOc1cc(OCOC)cc(C(=O)Oc2ccccc2)c1	> 100

System: ACHN renal
Test: growth of human tumour cells (NCI), 48 h

SMILES	TGI [µM]
CC#CC#C/C=C1/O[C@]2(CCC(OC(=O)CC(C)C)CO2)[C@@H]2O[C@H]12 (stereo not given in full)	44.7
O=C(CSc1nc2ccccc2c2ccccc12)c1ccccc1	> 100
CN(C)C1C(=O)C(C(=O)NCN2CCCC2)=C(O)C2(O)C(=O)C3=C(O)c4c(O)cccc4C(C)(O)C3CC12 (stereo not given)	> 100
O=C1C(Cl)C(c2cc3cc(Br)ccc3nc2Cl)N1c1ccc(F)c(Cl)c1 (stereo not given)	24.2
COCOc1cc(OCOC)cc(C(=O)Oc2ccccc2)c1	> 100

System: NCI-H460 lung
Test: growth of human tumour cells (NCI), 48 h

SMILES	TGI [µM]
CC#CC#C/C=C1/O[C@]2(CCC(OC(=O)CC(C)C)CO2)[C@@H]2O[C@H]12 (stereo not given in full)	> 100
O=C(CSc1nc2ccccc2c2ccccc12)c1ccccc1	> 100
O=C1C(Cl)C(c2cc3cc(Br)ccc3nc2Cl)N1c1ccc(F)c(Cl)c1 (stereo not given)	24.4
COCOc1cc(OCOC)cc(C(=O)Oc2ccccc2)c1	> 100

System: TK-10 renal
Test: growth of human tumour cells (NCI), 48 h

SMILES	TGI [µM]
CC#CC#C/C=C1/O[C@]2(CCC(OC(=O)CC(C)C)CO2)[C@@H]2O[C@H]12 (stereo not given in full)	61.3
O=C(CSc1nc2ccccc2c2ccccc12)c1ccccc1	> 100
CN(C)C1C(=O)C(C(=O)NCN2CCCC2)=C(O)C2(O)C(=O)C3=C(O)c4c(O)cccc4C(C)(O)C3CC12 (stereo not given)	> 100
O=C1C(Cl)C(c2cc3cc(Br)ccc3nc2Cl)N1c1ccc(F)c(Cl)c1 (stereo not given)	17
COCOc1cc(OCOC)cc(C(=O)Oc2ccccc2)c1	> 100

System: HCC-2998 colon
Test: growth of human tumour cells (NCI), 48 h

SMILES	TGI [µM]
CC#CC#C/C=C1/O[C@]2(CCC(OC(=O)CC(C)C)CO2)[C@@H]2O[C@H]12 (stereo not given in full)	37.5
O=C1C(Cl)C(c2cc3cc(Br)ccc3nc2Cl)N1c1ccc(F)c(Cl)c1 (stereo not given)	21.7
COCOc1cc(OCOC)cc(C(=O)Oc2ccccc2)c1	> 100

System: MDA-MB-231 breast
Test: growth of human tumour cells (NCI), 48 h

SMILES	TGI [µM]
CC#CC#C/C=C1/O[C@]2(CCC(OC(=O)CC(C)C)CO2)[C@@H]2O[C@H]12 (stereo not given in full)	62.7
O=C(CSc1nc2ccccc2c2ccccc12)c1ccccc1	> 100
CN(C)C1C(=O)C(C(=O)NCN2CCCC2)=C(O)C2(O)C(=O)C3=C(O)c4c(O)cccc4C(C)(O)C3CC12 (stereo not given)	> 100
O=C1C(Cl)C(c2cc3cc(Br)ccc3nc2Cl)N1c1ccc(F)c(Cl)c1 (stereo not given)	24.8
COCOc1cc(OCOC)cc(C(=O)Oc2ccccc2)c1	> 100

System: MOLT-4 leukemia
Test: growth of human tumour cells (NCI), 48 h

SMILES	TGI [µM]
CC#CC#C/C=C1/O[C@]2(CCC(OC(=O)CC(C)C)CO2)[C@@H]2O[C@H]12 (stereo not given in full)	54.6
O=C(CSc1nc2ccccc2c2ccccc12)c1ccccc1	> 100
CN(C)C1C(=O)C(C(=O)NCN2CCCC2)=C(O)C2(O)C(=O)C3=C(O)c4c(O)cccc4C(C)(O)C3CC12 (stereo not given)	> 100
O=C1C(Cl)C(c2cc3cc(Br)ccc3nc2Cl)N1c1ccc(F)c(Cl)c1 (stereo not given)	4.74
COCOc1cc(OCOC)cc(C(=O)Oc2ccccc2)c1	> 100

System: NCI-H522 lung
Test: growth of human tumour cells (NCI), 48 h

SMILES	TGI [µM]
CC#CC#C/C=C1/O[C@]2(CCC(OC(=O)CC(C)C)CO2)[C@@H]2O[C@H]12 (stereo not given in full)	37.4
O=C(CSc1nc2ccccc2c2ccccc12)c1ccccc1	> 100
CN(C)C1C(=O)C(C(=O)NCN2CCCC2)=C(O)C2(O)C(=O)C3=C(O)c4c(O)cccc4C(C)(O)C3CC12 (stereo not given)	> 100
O=C1C(Cl)C(c2cc3cc(Br)ccc3nc2Cl)N1c1ccc(F)c(Cl)c1 (stereo not given)	0.719
COCOc1cc(OCOC)cc(C(=O)Oc2ccccc2)c1	> 100

System: HCT-15 colon
Test: growth of human tumour cells (NCI), 48 h

SMILES	TGI [µM]
CC#CC#C/C=C1/O[C@]2(CCC(OC(=O)CC(C)C)CO2)[C@@H]2O[C@H]12 (stereo not given in full)	53.1
O=C(CSc1nc2ccccc2c2ccccc12)c1ccccc1	> 100
CN(C)C1C(=O)C(C(=O)NCN2CCCC2)=C(O)C2(O)C(=O)C3=C(O)c4c(O)cccc4C(C)(O)C3CC12 (stereo not given)	> 100
